# Laboratory results published in patent US8957056B2, “Migrastatin analogs in the treatment of cancer” (Sloan-Kettering Instiute for Cancer Research, priority 2004, dated 2015).
# Legend:
# [1] = test system: mouse breast tumor cells (4T1 cells); assay: Boyden chamber cell migration assay, 4T1; type: cell-based; settings: 4T1 tumor cells, 6-8 hours; read-out: IC50 value, chamber cell migration assay
# [2] = Mouse blood plasma stability; settings: test period one hour
# Experimental: The biological evaluation of the compounds (in terms of their ability to inhibit cell migration) was accomplished in a Boyden chamber cell migration assay. In this assay, mouse breast tumor cells (4T1 cells) or endothelial cells (HUVECs) are seeded on the upper chamber of a transwell insert. Growth factor-containing serum is added to the lower chamber.
# In anticipation of subsequent in vivo evaluation of these compounds and others, preliminary metabolic stability studies were carried out. […] As a test of the ‘deactivation hypothesis’, the hydrolysis product of macrolactone 48 was prepared (Scheme 27) and tested for its activity against tumor cell migration.
# [3] = test system: human breast cancer cell line MDA MB435; assay: Chamber cell migration assay, MDA MB435; type: cell-based; settings: highly metastatic human breast cancer cell line
# Experimental: Cell migrations were assayed with 8 μm of microporous 6.5-mm transwell plates (Corning). 200 μl of 2×10^5 cells in serum-free RPMI1640 medium containing 0.5% BSA were added to the upper chamber and 600 μl of medium with 10% fetal bovine serum was added to the lower chamber. […] Cells migrated to the lower wells were collected and counted for liquid tumors, solid tumors were processed as previously described.^28 Data shown are representative of at least three experiments.
# [4] = test system: human colon cancer cell line HT 29; assay: Wound healing (scratch) assay, HT 29; type: cell-based; parameters: key: successful (+); unsuccessful (−) inhibition of cell migration; settings: 10X IC50: 48 (240 nM), 55 (1000 nM), 60 (2550 nM); 24 and 48 h
# Experimental: (§1) The human ovarian cancer cell lines Ovcar3 and IGROV were grown in M5 media. The colon cell lines HT 29 and HCT 116 were cultivated in DMEM containing 10% FCS in a humidified environment at 37° C. Myeloma cell lines CAG (obtained from The Myeloma Institute for Research and Therapy, University of Arkansas) and RPMI8226 as well as lymphoma cell line RL were maintained at RPMI1640 medium containing 10% FCS. All cell lines were acquired from the ATCC if not otherwise stated.
# (§2) The tumor cells were seeded into 24-multiwell plates (Becton-Dickinson) and cultivated until the cells formed a confluent monolayer. Wounds were set by horizontally scratching the monolayer with a sterile pipette tip. The cells were thereafter washed twice with Phosphate Buffered Saline (PBS) to remove detached cells. Growth media was then added containing different concentrations of the chemical compound and incubated at 37° C. […] The cells were photographed at the beginning of the experiment and after 24 and 48 h to assess the progression of cell migration into the wound.
# colon cell line HCT 116 = assay: Wound healing (scratch) assay, HCT 116; type: cell-based, human; parameters: key: successful (+); unsuccessful (−) inhibition of cell migration; settings: 10X IC50: 48 (240 nM), 55 (1000 nM), 60 (2550 nM); 24 and 48 h
# Experimental: as §1, §2
# [5] = test system: human ovarian cancer cell line IGROV; assay: Wound healing (scratch) assay, IGROV; type: cell-based; parameters: key: successful (+); unsuccessful (−) inhibition of cell migration; settings: 10X IC50: 48 (240 nM), 55 (1000 nM), 60 (2550 nM); 24 and 48 h
# Experimental: as §1, §2
# [6] = test system: human ovarian cancer cell line Ovcar3; assay: Wound healing (scratch) assay, Ovcar3; type: cell-based; parameters: key: successful (+); unsuccessful (−) inhibition of cell migration; settings: 10X IC50: 48 (240 nM), 55 (1000 nM), 60 (2550 nM); 24 and 48 h
# Experimental: as §1, §2
# [7] = test system: human breast cancer cell line MDA MB435; assay: Wound healing (scratch) assay, MDA MB435; type: cell-based; parameters: key: successful (+); unsuccessful (−) inhibition of cell migration; settings: 10X IC50: 48 (240 nM), 55 (1000 nM), 60 (2550 nM); 24 and 48 h
# Experimental: as §2
# CAG cells = assay: CAG cell proliferation assay (XTT); type: cell-based, human; settings: printed in the legend on CAG cell proliferation; read-out: IC50 (legend of FIG. 3)
# Experimental: In the last 20 hours, sodium 3′-[1-(phenylamino-carbonyl)-3,4-tetrazolium]-bis(4-methoxy-6-nitro) benzene sulfonic acid hydrate (XTT) was added and optical absorbance at 490 nm were measured. As reference wavelength 650 nm was used. […] The result was expressed as percentage of the control.
# SKOV = assay: Cell proliferation and viability assay (XTT), SKOV; type: cell-based, human; settings: 72 h in total, no morphological sign of apoptosis or cell death
# Experimental: (§3) Cell proliferation and viability measurement were assessed by a colorimetric assay using sodium 39-(phenylaminocarbonyl)-3,4-tetrazolium-bis(4-methoxy-6-nitro) benzene sulfonic acid hydrate (XTT, Sigma, St. Louis, Mo.), and phenazine methosulphate (PMS, Sigma, St. Louis, Mo.). Cells from indicated lines were plated at 5˜10×10×10^3/well in 96 well plates in the presence of different concentration of compounds for 52 hrs. Then 50 μL of XTT/PMS mixture was added to each well and incubated for an additional 20 hrs at 37° C. Plate absorbance was measured directly at optical density of 490 nm (reference wavelength at 650 nm) in an ELISA reader (Thermo Max Microplate Reader, Molecular Devices, CA). The data was expressed as the mean of readings obtained in wells with treatment with subtraction of the reading with vehicle control. The total metabolic activity, which correspond to the number of living cells directly correlate to the amount of orange formazan formed in a cell. The result is expressed as percentage of the control.
# HT29 = assay: Cell proliferation and viability assay (XTT), HT29; type: cell-based, human; settings: 72 h in total, no morphological sign of apoptosis or cell death
# Experimental: as §3
# IGROV = assay: Cell proliferation and viability assay (XTT), IGROV; type: cell-based, human; settings: 72 h in total, no morphological sign of apoptosis or cell death
# Experimental: as §3
# HCT116 = assay: Cell proliferation and viability assay (XTT), HCT116; type: cell-based, human; settings: 72 h in total
# Experimental: as §3
# Ovcar3 = assay: Cell proliferation and viability assay (XTT), Ovcar3; type: cell-based, human; settings: 72 h in total
# Experimental: as §3
# Ovcar4 = assay: Cell proliferation and viability assay (XTT), Ovcar4; type: cell-based, human; settings: 72 h in total
# Experimental: as §3
# [8] = test system: human ovarian tumor cell line OVCAR3; assay: In vivo metastatic ovarian xenograph model (OVCAR3 HSV-TK/eGFP/FLuc); parameters: species or system mouse
# Excerpt: The human ovarian tumor cell line OVCAR3 was transduced with a triple fusion gene HSV-TK/eGFP/FLuc, expressing thymidine kinase, enhanced green fluorescence protein and firefly luciferase. Whole animal imaging by luciferase bioluminescence (FIGS. 7A & B), allowed identification and quantification of disseminated tumor. We quantified the tumor burden in each organ, by sacrificing the mouse shortly after luciferin injecting and imaging of the dissected organs (lung, liver and spleen) (FIG. 8). In all instances tumor engraftment was initiated with 1-5×10^7 cells and the recipients received 3 Gy irradiation 10 days before tumor engraftment. These tumor cells generated bulky omental metastases with diffuse microscopic peritoneal carcinomatosis causing ascites (FIG. 9), significant pleural effusion with diffuse macroscopic peritoneal carcinomatosis and liver, lung and paraaortic metastases.
# Treatment was initiated once primary tumor was well established. Animals were imaged at weekly intervals to monitor tumor growth and location of metastases (imaging sensitivity 200-500 cells).
# [9] = test system: human colon cancer cells (HT29); assay: Microarray analysis of treated HT29 cells; type: cell-based; settings: 500 nM, 6 h and 18 h
# Experimental: (§4) For the microarray comparison (Affymetrix chip -AU133 plus) human ovarian cancer cells (Ovcar3) and human colon cancer cells (HT29) were treated with 500 nM DMC (48) for 6 h and 18 h or left untreated. A large panel of up and down regulated genes were detected including a broad array of motility, cell shape and chemotaxis genes (FIG. 17).
# [10] = test system: human ovarian cancer cells Ovcar3; assay: Immunofluorescence staining of treated Ovcar3 cells; type: cell-based; settings: 500 nM
# Experimental: as §4
# Ovcar3 cells in exponential growth phase were seeded into 24 well plates at 2×10^4/ml in the presence of 500 nM of DMC (48). […] At the time of staining, cells were pre-blocked at room temperature in PBS with 3% BSA and 0.2% Na-azide. After washing, the cells were then incubated with indicated monoclonal antibody (FIG. 18), diluted 1:200 in 1.5% blocking serum, at 37° C. Cells were washed again and incubated with anti-mouse-Alexa red secondary antibody in the dark at 37° C. Cells were then counter-stained with 4,6-diamidino-2-phenylindole (DAPI) at 0.2 μg/ml PBS.
# [11] = 40 mg/kg three times a week for 10 treatments
# [12] = daily injection of 40 mg/kg i.p.
compound,measurement,setting,value
"CO[C@H]1/C=C/CCCCC(=O)OC/C(C)=C\[C@@H](C)[C@@H]1O [Compound 48, Macrolactone]",IC50,[1],24 nM
same,metabolic stability in mouse blood plasma,[2],hydrolyzed rapidly
same,response of MDA MB435 to the compound,[3],responded only slightly
same,"inhibition of cell migration, wound healing assay, HT 29",[4],+
same,"inhibition of cell migration, wound healing assay, HCT 116",colon cell line HCT 116,+
same,"inhibition of cell migration, wound healing assay, IGROV",[5],+
same,"inhibition of cell migration, wound healing assay, Ovcar3",[6],+
same,"inhibition of cell migration, wound healing assay, MDA MB435",[7],+
same,IC50,CAG cells,24 nM
same,"effect on proliferation, SKOV",SKOV,inhibition of proliferation
same,"effect on proliferation, HT29",HT29,inhibition of proliferation
same,"effect on proliferation, IGROV",IGROV,inhibition of proliferation
same,"effect on proliferation, HCT116",HCT116,uninfluenced
same,"effect on proliferation, Ovcar3",Ovcar3,uninfluenced
same,"effect on proliferation, Ovcar4",Ovcar4,uninfluenced
same,reduction of metastasis for liver,[8]; [11],80%
same,reduction of metastasis in lung and spleen,[8]; [11],highly significant reduction
same,treated mice that had ascitis,"[8]; FIG. 9, 4 out of 4 control mice had ascitis",1 out of 4
same,survival,[8]; [12],increase of survival
same,total tumor mass,[8]; [12],reduction of the total tumor mass
same,mice with inhibition of ascitis at the endpoint,"[8]; daily injection of 40 mg/kg i.p., all control mice developed ascites",3 out of 4
same,"E-cadherin expression, micro array",[9],upregulation
same,"Integrin α2 and CD44, immunofluorescent microscopy",[10],Upregulated
same,"β-tubulin, immunofluorescent microscopy",[10]; after 6 h or 24 h,did not show any modulations
